Experimental data from the supplement of paper PMC10307832.

Tests used:
Assay in all cases: relative viability (nuclei count vs DMSO), 5 days (fraction); higher = more cells survive
[1] = compound: CCC1=CN=CN=C1N2CCN(CC2)CC3=NC4=C(N3)C=C(C=C4)C(F)(F)F + CC1(C)CCC(c2ccc(Cl)cc2)=C(CN2CCN(c3ccc(C(=O)NS(=O)(=O)c4ccc(N[C@H](CCN5CCOCC5)CSc5ccccc5)c(S(=O)(=O)C(F)(F)F)c4)cc3)CC2)C1 [Navitoclax] (partner 0.5 µM)
Summary of the method: (§1)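 Relative viability was taken as the ratio of nuclei in treated wells to nuclei in vehicle wells. Lung cancer cell lines in 1536-well plates received compounds by pin tool one day after seeding, either one drug alone or a fixed anchor-drug dose plus five library-drug doses (not always all listed) in √10 steps. Nuclei were counted on 4× images after 5 days of treatment, and values are medians of duplicate plates.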

[2] = compound: CCn1c(-c2nonc2N)nc2cnc(Oc3cccc(NC(=O)c4ccc(OCCN5CCOCC5)cc4)c3)cc21 + CC(=O)c1c(C)c2cnc(Nc3ccc(N4CCNCC4)cn3)nc2n(C2CCCC2)c1=O [Palbociclib] (partner 0.5 µM)
Summary of the method: as §1

[3] = compound: CCn1c(-c2nonc2N)nc2cnc(Oc3cccc(NC(=O)c4ccc(OCCN5CCOCC5)cc4)c3)cc21 + CC1(C)CCC(c2ccc(Cl)cc2)=C(CN2CCN(c3ccc(C(=O)NS(=O)(=O)c4ccc(N[C@H](CCN5CCOCC5)CSc5ccccc5)c(S(=O)(=O)C(F)(F)F)c4)cc3)CC2)C1 [Navitoclax] (partner 0.5 µM)
Summary of the method: as §1

[4] = compound: N=C1NC(=O)/C(=C/c2ccc(O)cc2)S1 [Mirin] + Nc1nc2[nH]cc(CCc3ccc(C(=O)N[C@@H](CCC(=O)O)C(=O)O)cc3)c2c(=O)[nH]1 [Pemetrexed] (partner 0.2 µM)
Summary of the method: as §1

Row | Cell Line | relative viability ([1]; first compound 0.04 µM) | relative viability ([1]; first compound 0.1265 µM) | relative viability ([1]; first compound 0.4 µM) | relative viability ([1]; first compound 1.265 µM) | relative viability ([1]; first compound 4 µM) | relative viability ([2]; first compound 0.04 µM) | relative viability ([2]; first compound 0.1265 µM) | relative viability ([2]; first compound 0.4 µM) | relative viability ([2]; first compound 1.265 µM) | relative viability ([2]; first compound 4 µM) | relative viability ([3]; first compound 0.04 µM) | relative viability ([3]; first compound 0.1265 µM) | relative viability ([3]; first compound 0.4 µM) | relative viability ([3]; first compound 1.265 µM) | relative viability ([3]; first compound 4 µM) | relative viability ([4]; first compound 0.25 µM) | relative viability ([4]; first compound 0.7906 µM) | relative viability ([4]; first compound 2.5 µM) | relative viability ([4]; first compound 7.906 µM) | relative viability ([4]; first compound 25 µM)
1 | SW 1573 | 0.95 | 1.09 | 0.709 | 0.801 | 0.891 | 0.454 | 0.355 | 0.349 | 0.206 | 0.211 | 0.911 | 1.19 | 0.807 | 0.562 | 0.223 | 0.742 | 0.84 | 0.818 | 0.715 | 0.642
2 | LOU-NH91 | 0.626 | 0.692 | 0.708 | 0.583 | 0.752 | 0.508 | 0.476 | 0.502 | 0.422 | 0.421 | 0.8 | 0.597 | 0.557 | 0.392 | 0.447 | 0.375 | 0.389 | 0.357 | 0.399 | 0.376
3 | LXF-289 | 1.08 | 0.912 | 0.948 | 0.885 | 0.896 | 0.67 | 0.654 | 0.6 | 0.585 | 0.548 | 1.05 | 1.05 | 1.09 | 0.991 | 1.06 | 0.902 | 0.856 | 0.923 | 0.791 | 0.821
4 | NCI-H1299 | 1.09 | 1.03 | 1.03 | 1.05 | 1.04 | – | – | – | – | – | 1.02 | 1.01 | 0.887 | 0.885 | 0.803 | – | – | – | – | –
5 | HARA | 1.18 | 1.13 | 1.15 | 1.11 | 1.19 | 0.278 | 0.232 | 0.242 | 0.172 | 0.199 | 1.19 | 1.02 | 1.09 | 1.18 | 1.14 | 0.235 | – | 0.236 | 0.227 | 0.293
6 | LU99A | 0.846 | 0.825 | 0.864 | 0.709 | 0.657 | 0.502 | 0.399 | 0.392 | 0.405 | 0.392 | 0.98 | 0.82 | 0.841 | 0.849 | 0.741 | 0.159 | 0.204 | 0.186 | 0.137 | 0.17
7 | 201T | 1.23 | 1.19 | 1.16 | 1.17 | 1.23 | 0.359 | 0.366 | 0.368 | 0.354 | 0.345 | 1.16 | 1.19 | 1.18 | 1.21 | 1.14 | 0.307 | 0.309 | 0.337 | 0.336 | 0.302
8 | HCC-827 | 1.08 | 1.03 | 1.03 | 0.903 | 0.937 | 0.49 | 0.541 | 0.501 | 0.455 | 0.481 | 1.09 | 0.98 | 0.982 | 1.02 | 0.841 | 0.246 | 0.258 | 0.224 | 0.254 | 0.282
